Test results taken from patent US11981752B2, “Tumor associated monocyte/macrophage binding peptide and methods of use thereof” (Sanford Burnham Prebys Medical Discovery Institute, priority 2017, dated 2024).
pIC50: −log10 of the molar value. “Also recorded” adds a separate entry of the source. Where two headings read alike, the source gives them in different places. Bridge positions count the residues as written; N and C are the ends. Ends that are not written are not given here.

What was measured:
PI3Kγ = PI3Kγ (Homo sapiens, UniProt P48736); details: cited from earlier work
ATR = ATR (Homo sapiens, UniProt Q13535); details: cited from earlier work
[1] = test system: other kinases (named per endpoint); details: cited from earlier work
PI3Kδ = PI3Kδ (Homo sapiens, UniProt O00329); details: cited from earlier work
DNA-PK = DNA-PK (Homo sapiens, UniProt P78527); details: cited from earlier work
mTOR = mTOR (Homo sapiens, UniProt P42345); details: cited from earlier work
PI3Kβ = PI3Kβ (Homo sapiens, UniProt P42338); details: cited from earlier work
class I PI3K isoforms = details: cited from earlier work
[2] = test system: macrophages in atherosclerosis plaques; details: ApoE null mice fed high fat diet (She et al. 2016); cited from earlier work
tumor = details: systemic treatment of mice; cited from earlier work
atherosclerotic plaque = details: systemic treatment of mice; cited from earlier work
J774A.1 cells [3] = assay: In vitro peptide binding, flow cytometry, J774A.1; type: cell-based, mouse
Procedure: (§1) J774A.1 and RAW264.7 cells were obtained from ATCC. Cells were maintained in Dulbecco's Modified Eagle Medium supplemented with 10% fetal bovine serum, 1% Glutamine-Pen-Strep and […].
(§2) Cells were incubated on a rotator with peptides added at a final concentration of 10 μM in DMEM plus 1% BSA. For inhibition studies, biotin-CRV was added to a final concentration of 500 μM together with FAM-CRV (10 μM final). After 1 h at 4° C., cells were washed 3 times with PBS followed by flow cytometry analysis.
(§3) The peptide corresponding to the sequence of the top clone: […] (referred to as CRV herein; SEQ ID NO:1) was then synthesized. A green carboxy-fluorescein label (FAM) was added to the N-terminus of CRV to aid detection. CRV binding to two macrophage cell lines, J774A.1 and Raw264.7 was tested. Control peptides used were ARA ([…]; SEQ ID NO:8) and […] (SEQ ID NO:9).

Raw264.7 cells = assay: In vitro peptide binding, flow cytometry, Raw264.7; type: cell-based; details: FAM-labeled peptide 10 μM, 1 h at 4° C., controls ARA, GGSGGSKG
Procedure: as §1, §2, §3

4T1 breast tumors = assay: In vivo peptide homing in mice bearing orthotopic 4T1 breast tumors; details: 1 hour
Procedure: (§4) To produce 4T1 tumors, 1×10^6 4 T1 cells (ATCC) suspended in 100 μl of PBS were injected into the mammary fat pad of wild type Balb/c female mice. C57BL/6 mice bearing atherosclerosis plaques were generated as previously described (She et al., Journal of Controlled Release 238:212-20 (2016)). Animal experimentation was performed according to the procedures approved by the Animal Research Committee at the Sanford-Burnham Medical Research Institute.
(§5) Orthotopic 4T1 tumors were used when they reached 0.5-1 cm in size. For tumor or plaque homing, 200 μg FAM-labeled peptide dissolved in 100 μl PBS was injected intravenously into mice. After 1 hour of circulation, the mice were euthanized by cardiac perfusion with PBS under anesthesia, and tumors and other organs (or plaques on the aorta) were dissected and analyzed for peptide homing.
In vivo tissue distribution of CRV peptide in tumor mice was investigated. FAM-CRV was injected intravenously into mice bearing 4T1 breast tumors. After 1 hour, perfusion through the heart was performed to eliminate any circulating peptide. Heart, lung, liver, kidney, spleen, and tumor were excised and the FAM-CRV signal was imaged with an illuminator.
CRV homing in tumor mice was investigated. Mice with orthotopic 4T1 breast tumors (n=2) were intravenously injected with 100 μg of CRV peptide labeled with a green fluorophor (FAM). The peptide was allowed to circulate for 1 hour, and the mice were perfused through the left ventricle of the heart to eliminate any peptide remaining in the blood. Major organs were excised and examined under visible and fluorescent light.

[4] = test system: cells isolated from 4T1 tumors; assay: Ex vivo binding of FAM-CRV to cells isolated from 4T1 tumors; type: cell-based, mice; details: FAM-CRV 10 μM, 1-hour at 4° C., flow cytometry
Procedure: To determine the identity of the cells that FAM-CRV localized in within the tumors, ex vivo binding of FAM-CRV to cells isolated from tumors was studied. Tumors were excised from mice bearing 4T1 breast cancer and dissociated into single cell populations using MACS dissociation kit according to the manufacturer's instructions. FAM-CRV was added to a final concentration of 10 μM into a solution of DMEM+1% BSA containing 2 million tumor cells. After 1-hour incubation at 4° C., cells were stained with various immune cell markers. The markers tested include: CD11b (pan-monocyte/macrophage marker), Ly6-G (granulocytic monocyte), CCR2 (infiltrating monocytes), F4/80, CD4 (helper T cells), CD8 (cytotoxic T cells). Cells were stained for the indicated markers and subjected to flow cytometry analysis. The analysis was performed using antibodies to the indicated macrophage markers on CRV-positive cells.

[5] = test system: macrophages in atherosclerosis plaques; assay: In vivo homing to atherosclerosis plaques; parameters: species or system mice; details: 200 μg FAM-labeled peptide intravenously, 1 hour of circulation
Procedure: as §4, §5
Therefore, whether CRV also binds to macrophages in this model was investigated. 200 μg FAM-labeled peptide or control peptide ARA, each dissolved in 100 μl PBS, was injected intravenously into mice. After 1 hour of circulation, the mice were euthanized by cardiac perfusion with PBS under anesthesia, and tumors and other organs (or plaques on the aorta) were dissected and imaged with illuminator for FAM signal.

[6] = test system: macrophages in sites of infection; assay: Targeting of macrophages in sites of infection; type: in vivo; details: microbial, viral, or bacterial infection; no method given
J774A.1 cells [7] = assay: Phage display screening (CX7C T7 library) on J774A.1 cells; details: high throughput sequencing of phage clones bound to J774A.1 cells after three rounds of enrichment; terminal cysteines omitted

Sequence of PI3Kγ (P48736 whole entry, species assumed): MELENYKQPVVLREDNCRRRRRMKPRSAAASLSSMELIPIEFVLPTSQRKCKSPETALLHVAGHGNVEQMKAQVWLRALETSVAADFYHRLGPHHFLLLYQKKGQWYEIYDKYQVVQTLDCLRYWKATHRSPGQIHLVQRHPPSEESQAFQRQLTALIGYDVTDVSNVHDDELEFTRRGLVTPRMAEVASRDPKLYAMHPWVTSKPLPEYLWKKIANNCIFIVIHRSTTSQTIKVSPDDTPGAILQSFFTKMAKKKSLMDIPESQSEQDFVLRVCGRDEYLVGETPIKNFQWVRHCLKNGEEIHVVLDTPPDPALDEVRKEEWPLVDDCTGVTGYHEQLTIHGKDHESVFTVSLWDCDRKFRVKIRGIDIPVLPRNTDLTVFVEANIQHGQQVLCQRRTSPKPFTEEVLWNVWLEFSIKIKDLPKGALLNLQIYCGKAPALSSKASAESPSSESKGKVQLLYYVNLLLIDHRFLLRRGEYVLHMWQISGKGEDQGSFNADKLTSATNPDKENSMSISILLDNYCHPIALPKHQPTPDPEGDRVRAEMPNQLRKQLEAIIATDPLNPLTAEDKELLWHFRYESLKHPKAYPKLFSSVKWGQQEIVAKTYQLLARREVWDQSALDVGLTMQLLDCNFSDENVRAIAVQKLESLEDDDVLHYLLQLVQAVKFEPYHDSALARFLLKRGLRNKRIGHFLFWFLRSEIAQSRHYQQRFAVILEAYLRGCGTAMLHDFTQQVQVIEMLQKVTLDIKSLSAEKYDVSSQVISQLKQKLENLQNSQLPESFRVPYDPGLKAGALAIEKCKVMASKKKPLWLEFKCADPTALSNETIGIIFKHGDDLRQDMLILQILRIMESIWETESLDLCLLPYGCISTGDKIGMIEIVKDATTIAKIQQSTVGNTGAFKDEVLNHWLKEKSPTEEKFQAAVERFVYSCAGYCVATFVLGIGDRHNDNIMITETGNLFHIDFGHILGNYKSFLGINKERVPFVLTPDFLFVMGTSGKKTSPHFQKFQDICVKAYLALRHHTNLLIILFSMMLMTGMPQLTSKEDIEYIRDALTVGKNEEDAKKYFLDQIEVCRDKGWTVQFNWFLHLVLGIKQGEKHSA
Sequence of PI3Kδ (O00329 whole entry, species assumed): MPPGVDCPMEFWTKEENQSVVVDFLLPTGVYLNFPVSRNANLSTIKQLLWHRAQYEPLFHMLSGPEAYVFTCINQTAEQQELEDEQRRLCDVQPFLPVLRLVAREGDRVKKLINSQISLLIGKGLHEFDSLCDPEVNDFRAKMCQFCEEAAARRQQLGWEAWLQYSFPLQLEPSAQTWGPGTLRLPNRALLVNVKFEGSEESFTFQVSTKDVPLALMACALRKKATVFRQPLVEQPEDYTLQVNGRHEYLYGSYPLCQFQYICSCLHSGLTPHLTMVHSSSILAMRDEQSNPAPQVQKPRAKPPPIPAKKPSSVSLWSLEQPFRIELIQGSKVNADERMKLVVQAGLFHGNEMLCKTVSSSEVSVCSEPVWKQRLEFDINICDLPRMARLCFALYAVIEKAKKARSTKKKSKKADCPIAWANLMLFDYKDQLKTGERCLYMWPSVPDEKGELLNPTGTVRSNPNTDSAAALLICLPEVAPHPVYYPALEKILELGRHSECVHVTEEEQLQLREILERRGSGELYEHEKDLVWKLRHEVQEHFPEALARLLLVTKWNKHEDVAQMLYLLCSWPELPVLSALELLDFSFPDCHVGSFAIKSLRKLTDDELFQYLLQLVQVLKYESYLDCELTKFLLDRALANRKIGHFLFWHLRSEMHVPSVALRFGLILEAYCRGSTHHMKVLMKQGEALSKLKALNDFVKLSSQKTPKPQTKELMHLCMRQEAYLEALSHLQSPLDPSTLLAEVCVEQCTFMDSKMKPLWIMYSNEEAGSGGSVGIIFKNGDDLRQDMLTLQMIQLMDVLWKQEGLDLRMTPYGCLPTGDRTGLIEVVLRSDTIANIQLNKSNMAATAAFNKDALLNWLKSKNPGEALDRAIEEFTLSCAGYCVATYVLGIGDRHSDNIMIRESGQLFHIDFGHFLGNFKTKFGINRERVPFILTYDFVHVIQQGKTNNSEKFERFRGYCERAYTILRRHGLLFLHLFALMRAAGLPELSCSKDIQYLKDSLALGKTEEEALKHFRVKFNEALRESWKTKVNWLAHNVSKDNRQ
Sequence of PI3Kδ (P27986 whole entry partner, species assumed): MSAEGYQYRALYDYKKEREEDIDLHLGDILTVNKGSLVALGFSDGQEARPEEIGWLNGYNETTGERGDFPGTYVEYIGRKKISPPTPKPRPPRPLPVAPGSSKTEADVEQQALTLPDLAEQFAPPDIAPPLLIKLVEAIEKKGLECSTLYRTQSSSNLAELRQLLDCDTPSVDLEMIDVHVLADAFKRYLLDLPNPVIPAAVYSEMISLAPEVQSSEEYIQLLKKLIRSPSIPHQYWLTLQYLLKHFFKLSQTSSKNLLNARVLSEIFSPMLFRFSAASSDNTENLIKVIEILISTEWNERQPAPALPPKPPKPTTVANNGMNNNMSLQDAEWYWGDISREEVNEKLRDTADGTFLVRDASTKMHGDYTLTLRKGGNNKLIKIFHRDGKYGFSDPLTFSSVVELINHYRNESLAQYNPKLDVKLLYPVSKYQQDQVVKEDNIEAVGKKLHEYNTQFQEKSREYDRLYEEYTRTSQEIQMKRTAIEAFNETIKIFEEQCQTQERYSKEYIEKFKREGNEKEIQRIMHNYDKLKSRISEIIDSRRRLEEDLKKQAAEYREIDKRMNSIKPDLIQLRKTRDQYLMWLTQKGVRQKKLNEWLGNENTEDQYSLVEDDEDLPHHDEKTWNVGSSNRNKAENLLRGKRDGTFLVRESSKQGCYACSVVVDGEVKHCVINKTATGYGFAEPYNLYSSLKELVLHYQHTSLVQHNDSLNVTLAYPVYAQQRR
Sequence of PI3Kβ (P42338 whole entry, species assumed, canonical isoform): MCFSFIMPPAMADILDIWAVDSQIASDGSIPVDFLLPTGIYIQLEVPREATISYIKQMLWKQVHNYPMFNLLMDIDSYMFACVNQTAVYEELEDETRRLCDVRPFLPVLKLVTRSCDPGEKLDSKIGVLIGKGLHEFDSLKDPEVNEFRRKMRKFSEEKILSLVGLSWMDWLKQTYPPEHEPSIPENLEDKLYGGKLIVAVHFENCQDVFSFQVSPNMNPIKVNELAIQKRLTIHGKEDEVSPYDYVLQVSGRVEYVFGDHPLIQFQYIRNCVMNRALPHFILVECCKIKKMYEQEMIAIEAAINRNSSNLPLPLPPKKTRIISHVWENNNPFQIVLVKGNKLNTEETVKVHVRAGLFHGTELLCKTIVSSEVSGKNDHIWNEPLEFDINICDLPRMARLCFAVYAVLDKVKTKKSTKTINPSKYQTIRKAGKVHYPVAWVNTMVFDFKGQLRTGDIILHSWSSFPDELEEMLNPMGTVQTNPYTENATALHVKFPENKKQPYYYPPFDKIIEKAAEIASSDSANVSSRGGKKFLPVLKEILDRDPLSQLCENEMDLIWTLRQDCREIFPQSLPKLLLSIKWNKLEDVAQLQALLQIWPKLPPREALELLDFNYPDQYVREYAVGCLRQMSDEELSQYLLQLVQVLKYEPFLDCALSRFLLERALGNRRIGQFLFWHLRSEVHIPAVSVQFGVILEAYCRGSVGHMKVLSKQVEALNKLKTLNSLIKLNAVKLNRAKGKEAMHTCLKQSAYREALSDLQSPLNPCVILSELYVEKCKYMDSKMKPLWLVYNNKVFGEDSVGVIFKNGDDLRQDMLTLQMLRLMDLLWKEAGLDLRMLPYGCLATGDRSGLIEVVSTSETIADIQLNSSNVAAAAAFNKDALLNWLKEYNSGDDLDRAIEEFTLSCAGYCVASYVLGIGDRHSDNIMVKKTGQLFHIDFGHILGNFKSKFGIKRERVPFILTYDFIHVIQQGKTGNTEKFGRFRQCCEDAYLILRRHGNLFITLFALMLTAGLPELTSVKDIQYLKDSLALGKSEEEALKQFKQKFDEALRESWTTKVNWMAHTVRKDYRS
Sequence of PI3Kβ (P27986 whole entry partner, species assumed, canonical isoform): as the sequence (P27986 whole entry partner, species assumed) above

In the case of `O=C1NC(=O)C(=Cc2ccc(-c3ccc(F)cc3)o2)S1` (stereo in doubt) [CAY10505], the pIC50 (PI3Kγ) is listed as 7.48.
For `Cn1c(=O)n(-c2ccc(C(C)(C)C#N)cc2)c2c3cc(-c4cnc5ccccc5c4)ccc3ncc21` [BEZ235, Dactolisib], the pIC50 (ATR) is listed as 7.68 and the “inhibition of Akt and PDK1” value [1] is listed as “be a poor inhibitor to Akt and PDK1. Phase 2”.
For `COc1ccc(-c2cc3c(C)nc(N)nc3n([C@H]3CC[C@H](OCCO)CC3)c2=O)cn1` [PF-04691502], the “activity against Vps34, AKT, PDK1, p7056K, MEK, ERK, p38, or JNK” value [1] is given as “nM, little activity against either Vps34, AKT,”.
For `Fc1ccc2[nH]ccc2c1-c1nc(N2CCOCC2)c2sc(CN3CCN(CC4CC4)CC3)cc2n1` [PI-3065], the selectivity ratio (PI3Kδ) is given as > 70.
For `Cc1ccc([N+](=O)[O-])cc1S(=O)(=O)N(C)/N=C/c1cnc2ccc(Br)cn12` [PIK-75], the pIC50 (DNA-PK) is listed as 8.70 and the pIC50 (PI3Kγ) is listed as 7.12.
For `Cc1ccccc1-n1c(Cn2ncc3c(N)ncnc32)nc2cccc(C)c2c1=O` [PIK-293], the pIC50 (PI3Kγ) is given as 5.00 and the pIC50 (PI3Kδ) is given as 6.62.
In the case of `CCn1nnc2c(N3CCOCC3)nc(-c3ccc(NC(=O)Nc4ccc(C(=O)N5CCN(C)CC5)cc4)cc3)nc21` [PKI-402], the pIC50 (mTOR) is listed as 8.52 and the pIC50 (PI3Kβ) is listed as 8.15.
In the case of `O=c1c(O)c(-c2ccc(O)c(O)c2)oc2cc(O)cc(O)c12` [Quercetin], the pIC50 (class I PI3K isoforms; isoform not stated, read-out: PI3K IC50) is listed as 5.27 to 5.62.
For `CCn1c(=O)c(-c2cc[nH]n2)cc2c(C)nc(N)nc21` [SAR245409], the “inhibition of DNA-PK and mTOR” value [1] is listed as “also inhibits DNA-PK and mTOR. Phase 1/2”.
For `FC(F)c1nc2ccccc2n1-c1nc(N2CCOCC2)nc(N2CCOCC2)n1` [ZSTK474], the pIC50 (class I PI3K isoforms; read-out: IC50 for PI3K isoforms stated together (PI3Kα/β/δ/γ; class I PI3K isoforms)) is given as 7.43.
For “CGNKRTRGC (also: cyclic, kind and places not given here) [LyP-1, receptor is cell surface protein p32]”, the “homing to / recognition of macrophages in atherosclerosis plaques” value [2] is given as “homes to macrophages residing in atherosclerosis plaques; also recorded: recognizes macrophages both in tumors and atherosclerotic plaques”, the tumor growth (tumor) is given as “slows down tumor growth” and the atherosclerotic plaque (atherosclerotic plaque) is given as “reduces atherosclerotic plaque”.
With “CRVLRSGSC (disulfide 1-9 (inferred); also: FAM or biotin label) [TAM-homing peptide; tested with N-terminal FAM label (FAM-CRV) or biotin label (biotin-CRV)]” the “binding to J774A.1 cells versus control peptides” value (J774A.1 cells [3]; FAM-labeled peptide 10 μM, 1 h at 4° C., flow cytometry, controls ARA, GGSGGSKG) was “higher binding”, the “effect of excess biotin-labeled CRV on binding of FAM-CRV to J774A.1 cells” value (J774A.1 cells [3]; biotin-CRV 500 μM (50-fold excess), FAM-CRV 10 μM) was “inhibited the binding” and the “binding to Raw264.7 cells versus control peptides” value (Raw264.7 cells) was “higher binding”. The “localization in tumor sections (fluorescence microscopy)” value (4T1 breast tumors; 100 μg FAM-labeled peptide intravenously) was “lack of co-localization of CRV with the blood vessel marker CD31; also recorded: entered into the extravascular compartment of the tumor; also recorded: Partial co-localization of CRV with the macrophage marker F4/80; also recorded: localizes in a CD45 leukocyte-rich tumor area; also recorded: co-localizes with macrophages having the macrophage markers F4/80 and with lymphatic vessels in tumors”, the “organ fluorescence after injection of FAM-labeled peptide” value (4T1 breast tumors; 100 μg intravenously, perfusion, n=2) was “tumors were positive for peptide fluorescence; also recorded: Some fluorescence was seen in one lung; also recorded: kidneys were positive; also recorded: preferentially homes to tumors” and the “in vivo tissue distribution (FAM signal of excised organs)” value (4T1 breast tumors; FAM-CRV intravenously, perfusion, heart, lung, liver, kidney, spleen, tumor) was “mainly found in the tumors and the kidneys, with trace amounts or none in the liver, spleen, lungs and heart”. For the same compound, the “binding to different subtypes of CD11b+ cells (CD11b+Ly-6G+ vs. CD11b+Ly-6G-)” value [4] was “binds equally well”, the “share of CRV-positive cells that are CD11b+ cells” value [4] was ~80% and the “homing to atherosclerosis plaques” value [5] was “does not home to plaques; also recorded: recognizes macrophages in tumors but not in atherosclerotic plaques”. For the same compound, the “ability of the host to clear the infection” value [6] was “markedly increased ability of the host to clear the infection”.
For GGASIT, the Count (J774A.1 cells [7]) was 8677.
Work on GGRVLRS yielded a Count (J774A.1 cells [7]) of 62028.
With GRLLRSG the Count (J774A.1 cells [7]) was 9124.
In the case of GRMLRSG, the Count (J774A.1 cells [7]) was 8922.
In the case of GRVLRSS, the Count (J774A.1 cells [7]) was 6774.
Work on RSGLRSS yielded a Count (J774A.1 cells [7]) of 9519.
RVLRSGS showed a Count (J774A.1 cells [7]) of 63428.
In the case of SVAYD, the Count (J774A.1 cells [7]) was 10187.
With SVGRSMRS the Count (J774A.1 cells [7]) was 7916.
